Results as given in ChEMBL document CHEMBL1130642, “Conformationally constrained NO synthase inhibitors: rigid analogs of L-N-iminoethylornithine” (Bioorg Med Chem Lett, 1998).

biological target: T1, Nitric oxide synthase, inducible (Mus musculus, UniProt P29477); assay: Compound was evaluated for inhibitory activity against iNOS obtained from RAW 264.7 cells.; format: cell-based
T1 sequence (P29477 whole entry): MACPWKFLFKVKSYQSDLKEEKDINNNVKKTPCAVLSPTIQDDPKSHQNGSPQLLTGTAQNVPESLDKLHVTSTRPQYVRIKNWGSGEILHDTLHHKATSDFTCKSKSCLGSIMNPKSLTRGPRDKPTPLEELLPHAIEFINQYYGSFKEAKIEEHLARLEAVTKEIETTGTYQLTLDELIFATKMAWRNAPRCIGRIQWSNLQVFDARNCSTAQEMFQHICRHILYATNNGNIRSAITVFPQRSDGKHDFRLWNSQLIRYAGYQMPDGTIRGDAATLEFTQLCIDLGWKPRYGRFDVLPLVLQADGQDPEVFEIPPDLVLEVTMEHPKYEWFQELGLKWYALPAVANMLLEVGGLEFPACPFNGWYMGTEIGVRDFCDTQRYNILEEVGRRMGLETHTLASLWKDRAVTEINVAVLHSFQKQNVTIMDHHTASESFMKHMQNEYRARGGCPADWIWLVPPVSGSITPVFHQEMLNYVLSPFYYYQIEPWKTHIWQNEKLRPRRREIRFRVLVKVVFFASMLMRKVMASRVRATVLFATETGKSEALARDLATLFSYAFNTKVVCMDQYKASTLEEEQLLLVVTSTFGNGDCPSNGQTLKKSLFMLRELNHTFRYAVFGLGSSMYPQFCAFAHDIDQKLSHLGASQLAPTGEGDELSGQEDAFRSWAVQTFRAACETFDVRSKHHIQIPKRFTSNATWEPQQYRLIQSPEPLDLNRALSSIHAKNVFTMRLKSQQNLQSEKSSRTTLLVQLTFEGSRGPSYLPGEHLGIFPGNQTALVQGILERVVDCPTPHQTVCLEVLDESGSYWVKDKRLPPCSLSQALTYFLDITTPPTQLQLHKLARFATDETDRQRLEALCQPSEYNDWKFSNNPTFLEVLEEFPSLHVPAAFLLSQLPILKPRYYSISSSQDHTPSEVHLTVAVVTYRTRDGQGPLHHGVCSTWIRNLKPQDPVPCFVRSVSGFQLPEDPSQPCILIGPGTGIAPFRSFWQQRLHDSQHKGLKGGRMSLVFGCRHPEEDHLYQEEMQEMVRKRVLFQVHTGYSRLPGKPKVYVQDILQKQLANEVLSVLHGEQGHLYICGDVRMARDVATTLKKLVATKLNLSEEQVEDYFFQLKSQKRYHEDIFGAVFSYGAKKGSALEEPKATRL

| IC50 [µM] | Compound |
| --- | --- |
| 9 | CC(=N)NCCC[C@H](N)C(=O)O [L-NIO] |
| > 200 | COC(=O)[C@@H](N)[C@@H]1CC[C@@H](N=C(C)N)C1 |
| 25 | NC1=NC[C@H](C[C@H](N)C(=O)O)C1 |
| 36 | NC1=NC[C@@H](C[C@H](N)C(=O)O)C1 |
| > 200 | COC(=O)[C@@H](N)[C@@H]1CC[C@H](/N=C(/C)N)C1 |
| > 200 | CC(=N)N1CC[C@@H](C[C@H](N)C(=O)O)C1 |
| 50 | COC(=O)[C@@H](N)[C@H]1CC[C@H](/N=C(/C)N)C1 |
| 40 | CC(=N)N1CC[C@H](C[C@H](N)C(=O)O)C1 |
| 47 | COC(=O)[C@@H](N)[C@H]1CC[C@@H](N=C(C)N)C1 |
